Assay results: the supplement of paper PMC12463676, “Small-molecule dissolution of stress granules by redox modulation benefits ALS models” (Nature Chemical Biology, 2025)

Experiments:
[1] = compound: O=[As]([O-])(O)O.[K+] [potassium arsenate]; test: thermal stability z-score vs DMSO; higher = more thermally stabilized by treatment; settings: HeLa; arsenate concentration 1 mM
Description: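 Cellular thermal proteome profiling in HeLa cells treated with 1 mM arsenate for 1 h (DMSO pretreatment), heated to ten temperatures (37-66.3 °C). Soluble protein was quantified by TMT mass spectrometry relative to DMSO controls; the thermal stability score was transformed to a z-score; mean of n = 3 experiments.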

[2] = compound: NC(=O)CCCCC1CCSS1 [lipoamide]; test: as above; settings: HeLa, lipoamide concentration 100 µM
Description: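 Cellular thermal proteome profiling in HeLa cells. Cells were treated with 100 µM lipoamide for 1 h, with or without 1 mM arsenate for a further 1 h, then heated to ten temperatures (37-66.3 °C), and soluble protein was quantified by TMT mass spectrometry relative to 0.1% DMSO controls. The thermal stability score (sum of log2 fold changes minus the abundance score) was transformed to a z-score; mean of n = 3 experiments.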

[3] = arsenate co-treatment: 1 mM arsenate 1 h
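Also: each temperature applied for 3 min, abundance score taken as mean log2 fold change at the two lowest temperatures, z-score obtained by mean subtraction and division by SD.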

Chain of UniProt Q9NPD3 (Q9NPD3 whole entry): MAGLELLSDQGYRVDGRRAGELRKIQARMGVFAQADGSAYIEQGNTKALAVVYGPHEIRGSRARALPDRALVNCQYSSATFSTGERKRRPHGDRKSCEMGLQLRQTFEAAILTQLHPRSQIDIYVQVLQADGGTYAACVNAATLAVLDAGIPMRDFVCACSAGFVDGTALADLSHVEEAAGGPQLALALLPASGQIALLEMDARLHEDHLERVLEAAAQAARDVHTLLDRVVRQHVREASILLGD
Chain of UniProt Q5T3F8 (Q5T3F8 whole entry): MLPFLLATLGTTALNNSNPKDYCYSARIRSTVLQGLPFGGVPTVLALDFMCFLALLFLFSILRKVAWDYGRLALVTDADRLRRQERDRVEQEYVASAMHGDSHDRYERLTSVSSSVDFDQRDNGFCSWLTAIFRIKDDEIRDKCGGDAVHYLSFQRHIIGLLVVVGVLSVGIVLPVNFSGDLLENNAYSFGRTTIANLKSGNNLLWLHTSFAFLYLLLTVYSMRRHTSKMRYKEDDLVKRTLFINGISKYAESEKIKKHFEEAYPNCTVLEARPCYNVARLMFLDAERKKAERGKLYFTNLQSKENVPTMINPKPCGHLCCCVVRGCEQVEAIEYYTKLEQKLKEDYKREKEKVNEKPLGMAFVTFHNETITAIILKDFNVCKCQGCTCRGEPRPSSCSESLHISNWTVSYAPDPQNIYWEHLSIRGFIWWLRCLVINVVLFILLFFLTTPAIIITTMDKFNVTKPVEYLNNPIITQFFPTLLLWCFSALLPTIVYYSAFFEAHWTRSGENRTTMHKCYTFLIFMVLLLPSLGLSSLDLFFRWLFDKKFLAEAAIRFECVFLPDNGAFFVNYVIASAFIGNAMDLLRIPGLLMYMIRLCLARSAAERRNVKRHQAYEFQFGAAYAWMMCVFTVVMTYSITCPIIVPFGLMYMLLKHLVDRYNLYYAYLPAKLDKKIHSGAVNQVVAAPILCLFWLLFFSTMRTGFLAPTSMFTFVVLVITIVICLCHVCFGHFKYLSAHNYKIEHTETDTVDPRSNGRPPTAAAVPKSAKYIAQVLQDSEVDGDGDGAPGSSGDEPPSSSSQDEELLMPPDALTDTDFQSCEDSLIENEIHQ
Chain of UniProt Q6VMQ6 (Q6VMQ6 whole entry): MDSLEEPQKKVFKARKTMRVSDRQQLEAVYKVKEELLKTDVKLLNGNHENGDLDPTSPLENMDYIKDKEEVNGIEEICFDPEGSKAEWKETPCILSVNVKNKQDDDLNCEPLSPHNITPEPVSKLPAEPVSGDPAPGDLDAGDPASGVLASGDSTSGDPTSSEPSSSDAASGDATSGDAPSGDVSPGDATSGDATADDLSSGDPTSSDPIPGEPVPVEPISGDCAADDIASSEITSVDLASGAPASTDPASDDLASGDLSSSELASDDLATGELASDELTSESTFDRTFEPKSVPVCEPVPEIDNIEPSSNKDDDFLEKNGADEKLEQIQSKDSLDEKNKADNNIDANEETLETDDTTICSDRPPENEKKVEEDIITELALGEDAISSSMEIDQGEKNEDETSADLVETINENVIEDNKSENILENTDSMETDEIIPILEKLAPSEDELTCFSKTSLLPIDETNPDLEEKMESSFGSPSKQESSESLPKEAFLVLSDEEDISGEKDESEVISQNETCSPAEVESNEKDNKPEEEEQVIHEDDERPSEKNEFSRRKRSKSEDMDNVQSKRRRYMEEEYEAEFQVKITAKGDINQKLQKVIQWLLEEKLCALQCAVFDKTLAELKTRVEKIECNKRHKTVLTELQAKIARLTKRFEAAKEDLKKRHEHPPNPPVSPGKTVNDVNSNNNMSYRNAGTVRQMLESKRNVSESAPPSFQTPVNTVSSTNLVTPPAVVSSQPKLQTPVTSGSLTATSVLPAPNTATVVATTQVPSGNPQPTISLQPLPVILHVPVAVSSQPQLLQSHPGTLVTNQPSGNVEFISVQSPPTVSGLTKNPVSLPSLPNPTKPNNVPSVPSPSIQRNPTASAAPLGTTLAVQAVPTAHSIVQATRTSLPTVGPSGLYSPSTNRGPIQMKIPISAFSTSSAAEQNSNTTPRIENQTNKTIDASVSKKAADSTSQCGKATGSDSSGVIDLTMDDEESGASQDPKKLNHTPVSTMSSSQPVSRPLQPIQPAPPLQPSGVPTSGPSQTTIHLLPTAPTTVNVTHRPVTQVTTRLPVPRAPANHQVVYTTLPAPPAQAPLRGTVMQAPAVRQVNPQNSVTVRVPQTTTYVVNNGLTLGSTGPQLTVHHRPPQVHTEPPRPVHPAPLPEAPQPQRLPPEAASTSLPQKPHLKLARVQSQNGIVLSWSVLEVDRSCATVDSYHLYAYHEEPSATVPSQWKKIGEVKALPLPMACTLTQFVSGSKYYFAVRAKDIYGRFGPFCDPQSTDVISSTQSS
Chain of UniProt Q14677 (Q14677 whole entry): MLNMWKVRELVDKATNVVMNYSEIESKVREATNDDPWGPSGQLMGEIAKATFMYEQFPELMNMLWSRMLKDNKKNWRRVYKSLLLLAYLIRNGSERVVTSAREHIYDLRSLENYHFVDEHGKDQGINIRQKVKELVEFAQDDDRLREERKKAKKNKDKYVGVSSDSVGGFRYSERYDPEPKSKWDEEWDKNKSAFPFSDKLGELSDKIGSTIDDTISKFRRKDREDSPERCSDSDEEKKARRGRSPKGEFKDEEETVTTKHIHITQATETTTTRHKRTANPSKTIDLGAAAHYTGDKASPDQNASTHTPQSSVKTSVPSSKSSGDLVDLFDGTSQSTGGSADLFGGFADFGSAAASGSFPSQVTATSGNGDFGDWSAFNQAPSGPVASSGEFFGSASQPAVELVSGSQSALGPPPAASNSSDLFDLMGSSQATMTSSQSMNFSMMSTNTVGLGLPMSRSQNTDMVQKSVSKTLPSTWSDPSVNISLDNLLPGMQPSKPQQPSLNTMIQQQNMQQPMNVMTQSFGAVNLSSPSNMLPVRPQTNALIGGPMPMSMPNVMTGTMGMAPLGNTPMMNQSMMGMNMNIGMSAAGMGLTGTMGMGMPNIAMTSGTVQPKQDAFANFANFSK
Chain of UniProt Q96IZ0 (Q96IZ0 whole entry): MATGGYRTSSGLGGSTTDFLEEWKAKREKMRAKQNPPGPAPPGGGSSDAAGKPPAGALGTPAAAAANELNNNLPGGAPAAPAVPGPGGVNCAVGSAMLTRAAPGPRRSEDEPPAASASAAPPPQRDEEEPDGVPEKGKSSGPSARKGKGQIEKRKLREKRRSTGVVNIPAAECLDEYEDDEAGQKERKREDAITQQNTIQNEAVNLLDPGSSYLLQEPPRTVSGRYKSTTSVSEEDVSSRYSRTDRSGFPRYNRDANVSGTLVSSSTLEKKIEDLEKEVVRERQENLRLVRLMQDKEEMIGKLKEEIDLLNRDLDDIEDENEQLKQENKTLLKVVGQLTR
Chain of UniProt Q9BZQ8 (Q9BZQ8 whole entry): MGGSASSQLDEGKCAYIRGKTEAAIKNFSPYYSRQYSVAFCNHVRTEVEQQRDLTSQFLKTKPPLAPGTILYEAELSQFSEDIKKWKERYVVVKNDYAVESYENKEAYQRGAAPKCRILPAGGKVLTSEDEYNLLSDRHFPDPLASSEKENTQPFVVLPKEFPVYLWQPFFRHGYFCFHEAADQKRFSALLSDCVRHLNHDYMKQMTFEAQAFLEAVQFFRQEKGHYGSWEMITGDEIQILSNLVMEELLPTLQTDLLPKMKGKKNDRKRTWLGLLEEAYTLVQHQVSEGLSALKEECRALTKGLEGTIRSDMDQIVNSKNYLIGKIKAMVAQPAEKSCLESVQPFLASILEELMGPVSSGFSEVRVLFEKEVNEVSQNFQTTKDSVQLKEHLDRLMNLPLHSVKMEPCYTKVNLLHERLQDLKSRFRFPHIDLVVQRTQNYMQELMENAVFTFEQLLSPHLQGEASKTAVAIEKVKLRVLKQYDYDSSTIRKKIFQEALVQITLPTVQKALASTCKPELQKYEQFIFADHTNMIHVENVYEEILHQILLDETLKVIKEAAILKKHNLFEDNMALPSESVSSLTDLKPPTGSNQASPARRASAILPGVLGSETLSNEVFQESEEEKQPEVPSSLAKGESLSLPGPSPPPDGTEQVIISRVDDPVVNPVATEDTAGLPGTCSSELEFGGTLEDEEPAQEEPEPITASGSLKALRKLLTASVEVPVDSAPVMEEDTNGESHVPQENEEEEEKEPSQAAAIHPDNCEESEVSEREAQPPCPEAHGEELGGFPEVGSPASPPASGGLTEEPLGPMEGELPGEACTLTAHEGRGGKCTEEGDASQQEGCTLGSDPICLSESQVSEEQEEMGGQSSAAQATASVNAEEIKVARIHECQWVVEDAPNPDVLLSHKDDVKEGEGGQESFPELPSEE
Chain of UniProt O95149 (O95149 whole entry): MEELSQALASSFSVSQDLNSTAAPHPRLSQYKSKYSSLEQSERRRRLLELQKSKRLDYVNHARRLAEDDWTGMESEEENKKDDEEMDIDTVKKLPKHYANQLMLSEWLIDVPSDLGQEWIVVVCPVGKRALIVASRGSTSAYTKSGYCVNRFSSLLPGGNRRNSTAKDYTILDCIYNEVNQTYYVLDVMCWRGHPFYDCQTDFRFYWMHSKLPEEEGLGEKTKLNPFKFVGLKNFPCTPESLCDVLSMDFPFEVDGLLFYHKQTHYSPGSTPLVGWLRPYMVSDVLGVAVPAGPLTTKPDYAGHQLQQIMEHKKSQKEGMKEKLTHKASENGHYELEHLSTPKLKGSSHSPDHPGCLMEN
Chain of UniProt Q7L5A8 (Q7L5A8 whole entry): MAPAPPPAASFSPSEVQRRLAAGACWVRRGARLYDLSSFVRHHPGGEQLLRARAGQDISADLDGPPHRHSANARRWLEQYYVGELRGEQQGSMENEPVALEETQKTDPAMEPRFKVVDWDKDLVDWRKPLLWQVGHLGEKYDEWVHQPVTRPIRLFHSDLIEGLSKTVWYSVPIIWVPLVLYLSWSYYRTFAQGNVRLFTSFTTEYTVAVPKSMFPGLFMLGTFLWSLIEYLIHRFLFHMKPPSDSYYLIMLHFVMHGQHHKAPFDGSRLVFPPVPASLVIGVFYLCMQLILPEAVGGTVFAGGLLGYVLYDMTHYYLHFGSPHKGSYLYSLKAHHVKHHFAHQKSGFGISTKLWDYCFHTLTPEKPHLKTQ

Target	thermal stability z-score [1]	thermal stability z-score [2, 3]	thermal stability z-score ([2]; arsenate co-treatment: none)
TANC2 (UniProt Q9HCD6)	-0.0159	-0.0889	-0.116
KIAA0391 (UniProt O15091)	-0.0848	-0.0274	0.14
MPP6	-0.29	-0.288	-0.0854
CLINT1 (UniProt Q14677)	1.08	0.199	0.142
KDM5C (UniProt P41229)	-0.2	0.0486	-0.0414
SUGP1 (UniProt Q8IWZ8)	0.928	0.164	-0.049
PPP1R14B (UniProt Q96C90)	-0.284	0.068	0.535
CCT3 (UniProt P49368)	0.00358	0.066	-0.106
ALDH16A1 (UniProt Q8IZ83)	-0.784	-0.127	-0.311
ATF7IP (UniProt Q6VMQ6)	-0.304	0.974	0.0822
ASNA1 (UniProt O43681)	-0.178	-0.234	-0.285
WDR53 (UniProt Q7Z5U6)	1.07	0.164	0.989
TTI1 (UniProt O43156)	1.78	0.86	1.21
MAP3K6 (UniProt O95382)	-0.0305	0.0331	-0.0259
PLXNA1 (UniProt Q9UIW2)	-0.00413	0.316	-0.385
MRPS15 (UniProt P82914)	0.555	0.673	0.571
UBQLN2 (UniProt Q9UHD9)	-0.0552	1.26	0.932
FAM129A (UniProt Q9BZQ8)	0.444	-0.167	-0.0302

Target	thermal stability z-score [1]	thermal stability z-score [2, 3]	thermal stability z-score ([2]; arsenate co-treatment: none)
RPL21 (UniProt P46778)	-1.03	0.61	0.308
DPP7 (UniProt Q9UHL4)	-0.0217	0.246	0.304
EXOSC4 (UniProt Q9NPD3)	-0.872	0.821	-0.104
SNUPN (UniProt O95149)	-0.43	-0.201	-1.48
SNX9 (UniProt Q9Y5X1)	0.276	-0.0697	-0.0413
ARID2 (UniProt Q68CP9)	-0.234	0.136	0.254
NUDCD1 (UniProt Q96RS6)	-0.0861	-0.287	-0.282
CDK12 (UniProt Q9NYV4)	-0.614	-0.233	0.0238
PAWR (UniProt Q96IZ0)	0.349	0.873	0.657
SHQ1 (UniProt Q6PI26)	0.000909	-0.105	0.0326
GDAP2 (UniProt Q9NXN4)	-0.255	-0.0509	-0.305
QTRTD1 (UniProt Q9H974)	-0.765	0.678	-0.447
TXNL4A (UniProt P83876)	-0.461	0.343	-0.0818
TMEM63B (UniProt Q5T3F8)	-0.606	-0.865	-0.374
DUS2 (UniProt Q9NX74)	-0.452	-0.517	0.0964
FA2H (UniProt Q7L5A8)	-0.327	-0.355	0.132
ABCC5 (UniProt O15440)	-0.077	0.335	0.0156
